Assay results taken from patent publication US20240083910A1, “AMIDO-SUBSTITUTED PYRIDYL COMPOUNDS AND METHODS OF USE THEREOF FOR THE TREATMENT OF HERPESVIRUSES” (Merck Sharp & Dohme LLC, priority 2020, published 2024).

Columns and labels:
[1] = target: T1, varicella zoster virus DNA polymerase (Varicella-zoster virus, UniProt P09252); assay: VZV polymerase assay (AlphaLISA); assay type: biochemical; details: VZV polymerase 0.4 nM; 30 min pre-incubation; 60 min at 37° C.
T1 construct: made in house; host or cells: SF21 insect cells (baculovirus vector)
T1 sequence (P09252 whole entry): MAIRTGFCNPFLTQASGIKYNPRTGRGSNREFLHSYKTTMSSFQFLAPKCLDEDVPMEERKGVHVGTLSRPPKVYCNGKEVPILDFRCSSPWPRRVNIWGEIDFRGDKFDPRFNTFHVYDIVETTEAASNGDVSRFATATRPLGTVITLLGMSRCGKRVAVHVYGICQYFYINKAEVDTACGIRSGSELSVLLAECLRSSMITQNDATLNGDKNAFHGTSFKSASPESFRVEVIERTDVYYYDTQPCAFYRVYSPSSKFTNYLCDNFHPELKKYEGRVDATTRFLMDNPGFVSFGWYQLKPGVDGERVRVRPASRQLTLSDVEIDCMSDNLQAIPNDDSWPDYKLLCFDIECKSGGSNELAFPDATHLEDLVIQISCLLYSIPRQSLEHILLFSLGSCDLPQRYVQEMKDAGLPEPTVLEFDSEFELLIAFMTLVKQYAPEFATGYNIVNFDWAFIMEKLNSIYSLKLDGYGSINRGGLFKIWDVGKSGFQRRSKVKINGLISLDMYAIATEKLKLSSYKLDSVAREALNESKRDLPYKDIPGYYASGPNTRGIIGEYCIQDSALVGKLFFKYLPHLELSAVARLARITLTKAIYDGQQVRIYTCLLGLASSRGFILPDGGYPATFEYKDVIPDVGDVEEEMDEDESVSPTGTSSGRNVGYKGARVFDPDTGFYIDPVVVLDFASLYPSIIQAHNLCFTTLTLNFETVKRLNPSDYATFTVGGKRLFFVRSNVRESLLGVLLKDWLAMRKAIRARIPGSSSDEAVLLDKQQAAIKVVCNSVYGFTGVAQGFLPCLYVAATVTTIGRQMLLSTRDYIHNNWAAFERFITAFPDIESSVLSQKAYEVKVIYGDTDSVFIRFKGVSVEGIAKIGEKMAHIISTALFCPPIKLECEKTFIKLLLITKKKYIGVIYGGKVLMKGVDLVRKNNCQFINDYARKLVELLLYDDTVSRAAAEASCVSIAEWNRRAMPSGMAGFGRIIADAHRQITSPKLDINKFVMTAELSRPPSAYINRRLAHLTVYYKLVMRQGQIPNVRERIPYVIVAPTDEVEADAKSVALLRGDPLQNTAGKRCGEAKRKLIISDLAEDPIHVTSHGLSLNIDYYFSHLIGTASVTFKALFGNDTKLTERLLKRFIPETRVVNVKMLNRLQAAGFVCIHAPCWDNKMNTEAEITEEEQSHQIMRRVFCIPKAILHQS
Description: (§1) Human cytomegalovirus and varicella zoster virus DNA polymerases were expressed via baculovirus vector in SF21 cells and purified. Heterodimeric nucleic acid substrate used in the herpesvirus polymerase reactions was generated by annealing a 59-mer template to a 17-mer digoxigenin-labeled primer. Polymerase (HCMV final concentration of 0.2 nM; VZV final concentration of 0.4 nM) was combined with an inhibitor compound or DMSO in assay buffer (10 mM HEPES, pH 7.5, 25 mM KCl, 25 mM NaCl, 5 mM MgCl2, 5% glycerol, 0.67 mg/ml bovine serum albumin, and 1 mM tris(2-carboxyethyl)phosphine), and this mixture was pre-incubated for 30 minutes at room temperature in 384-well microtiter plates. The polymerization reaction was initiated by the addition of template/primer substrate (final concentration: 1.6 nM), and dNTPs (final concentration: 24 nM dCTP, 24 nMdGTP, 16 nM dATP, 16 nM dTTP, and 0.8 nM biotin-dUTP). After 60 min incubation at 37° C., reactions were terminated with quench buffer (25 mM HEPES pH 7.5, 100 mM NaCl, 0.25% Tween-20, 12 mM EDTA, and 1 mg/ml bovine serum albumin). Incorporation of biotinylated UTP was detected with 2.5-5 ug/ml anti-DIG AlphaLISA acceptor beads and 5-10 ug/ml streptavidin AlphaLISA donor beads (PerkinElmer). Compound effects were normalized to the window defined by the controls (DMSO only and pre-quenched wells) and were fit using a 4-parameter algorithm to report an IC50.

HSV-1 Strain F = assay: Viral qPCR assay, HSV-1; assay type: cell-based, Herpes Simplex Virus type 1; details: Human alphaherpesvirus 1, 72 h, Vero or MRC5 cells, 0.0005-0.004 pfu/cell, growth medium, viral genome copies by qPCR, read-out: HSV1 Cell (EC50)
Description: (§2) MRC5 cells, Vero cells, and MeWo cells were obtained from ATCC, and were maintained at 37° C./5% CO2/90% relative humidity in Minimal Essential Medium with 10% fetal bovine serum, […] L-glutamine, 100 units/ml penicillin and 100 ug/ml streptomycin. Assay plates were prepared by dispensing compounds dissolved in DMSO into wells of 384 well collagen-coated plates using an ECHO acoustic dispenser. Each compound was tested in a 10-point, serial 3-fold dilution. Controls included uninfected cells and infected cells treated only with DMSO. Assays were initiated by mixing selected cells, in suspension, with virus, and dispensing 50 μl/well infected cells to pre-plated compounds. Plates were incubated at 37° C./5% CO2/90% relative humidity for ˜72 hrs to permit genomic replication, and infected cells were lysed by the addition of an equal volume of lysis buffer (10 mM Tris-HCl, pH8, 50 mM KCl, 2 mM MgCl2, 0.45% NP-40, 0.45% Tween-20, and 100 μg/ml proteinase K). An aliquot of the lysate was transferred to a 384-well PCR plate and incubated at 56° C. for 1 hour and then at 95° C. for 10 min. Levels of a viral gene and of the cellular control, PPIA (Thermo Fisher Assay ID=Hs04194521_s1), were measured in separate 10 ul qPCR assays using TaqMan® Gene Expression Master Mix (Applied Biosystems), and an 7900HT Fast Real-Time PCR System with 384-Well Block Module. 7-point, serial 10-fold dilutions of a plasmid standard were run on each plate to generate a standard curve, and genome copies numbers were calculated by plotting experimental Ct onto linear regression of the standard curve. Viral genome copy numbers were normalized by cellular control copy number, and compound effects were normalized to the window defined by the controls. Calculated % effects were fit using a 4-parameter algorithm, and EC50 was reported.
(§3) MRC5 cells, Vero cells, and MeWo cells were obtained from ATCC, and were maintained at 37° C./5% CO2/90% relative humidity in Minimal Essential Medium with 10% fetal bovine serum, […] L-glutamine, 100 units/ml penicillin and 100 ug/ml streptomycin. Assay plates were prepared by dispensing compounds dissolved in DMSO into wells of 384 well collagen-coated plates using an ECHO acoustic dispenser. Each compound was tested in a 10-point, serial 3-fold dilution. Controls included uninfected cells and infected cells treated only with DMSO. Assays were initiated by mixing selected cells, in suspension, with virus, and dispensing 50 μl/well infected cells to pre-plated compounds. Plates were incubated at 37° C./5% CO2/90% relative humidity for ˜72 hrs to permit genomic replication, and infected cells were lysed by the addition of an equal volume of lysis buffer (10 mM Tris-HCl, pH 8, 50 mM KCl, 2 mM MgC12, 0.45% NP-40, 0.45% Tween-20, and 100 μg/ml proteinase K). An aliquot of the lysate was transferred to a 384-well PCR plate and incubated at 56° C. for 1 hour and then at 95° C. for 10 min. Levels of a viral gene were measured in 10 ul qPCR assays using TaqMan® Gene Expression Master Mix (Applied Biosystems), and an 7900HT Fast Real-Time PCR System with 384-Well Block Module. 7-point, serial 10-fold dilutions of a plasmid standard were run on each plate to generate a standard curve, and genome copies numbers were calculated by plotting experimental Ct onto linear regression of the standard curve. Compound effects on viral genome copy number were normalized to the window defined by the controls. Calculated % effects were fit using a 4-parameter algorithm, and ECso was reported.
HSV-1: Strain F […] was assayed in Vero or MRC5 cells and was used at 0.0005-0.004 pfu/cell in growth medium. Primer-probe set was Thermo Fisher Assay ID=AIBJZIB

VZV = assay: Viral qPCR assay, VZV; assay type: cell-based, varicella zoster virus; details: Human alphaherpesvirus 3, 72 h, MeWo or MRC5 cells, 0.04-0.1 pfu/cell, growth medium, viral genome copies by qPCR
Description: as §2, §3
VZV: Strain Street was maintained as an infected cell stock in MRC-5 cells. It was assayed in MeWo or MRC5 cells and was used at 0.04-0.1 pfu/cell. The assays were performed in growth medium. Primer-probe set was Thermo Fisher Assay ID=AIPAEXQ.

[2] = target: T2, Human cytomegalovirus DNA polymerase (Human cytomegalovirus, UniProt P08546); assay: CMV polymerase assay (AlphaLISA); assay type: biochemical; details: HCMV polymerase 0.2 nM; 30 min pre-incubation; 60 min at 37° C.; read-out: CMV (IC50)
T2 construct: made in house; host or cells: SF21 insect cells (baculovirus vector)
T2 sequence (P08546 whole entry): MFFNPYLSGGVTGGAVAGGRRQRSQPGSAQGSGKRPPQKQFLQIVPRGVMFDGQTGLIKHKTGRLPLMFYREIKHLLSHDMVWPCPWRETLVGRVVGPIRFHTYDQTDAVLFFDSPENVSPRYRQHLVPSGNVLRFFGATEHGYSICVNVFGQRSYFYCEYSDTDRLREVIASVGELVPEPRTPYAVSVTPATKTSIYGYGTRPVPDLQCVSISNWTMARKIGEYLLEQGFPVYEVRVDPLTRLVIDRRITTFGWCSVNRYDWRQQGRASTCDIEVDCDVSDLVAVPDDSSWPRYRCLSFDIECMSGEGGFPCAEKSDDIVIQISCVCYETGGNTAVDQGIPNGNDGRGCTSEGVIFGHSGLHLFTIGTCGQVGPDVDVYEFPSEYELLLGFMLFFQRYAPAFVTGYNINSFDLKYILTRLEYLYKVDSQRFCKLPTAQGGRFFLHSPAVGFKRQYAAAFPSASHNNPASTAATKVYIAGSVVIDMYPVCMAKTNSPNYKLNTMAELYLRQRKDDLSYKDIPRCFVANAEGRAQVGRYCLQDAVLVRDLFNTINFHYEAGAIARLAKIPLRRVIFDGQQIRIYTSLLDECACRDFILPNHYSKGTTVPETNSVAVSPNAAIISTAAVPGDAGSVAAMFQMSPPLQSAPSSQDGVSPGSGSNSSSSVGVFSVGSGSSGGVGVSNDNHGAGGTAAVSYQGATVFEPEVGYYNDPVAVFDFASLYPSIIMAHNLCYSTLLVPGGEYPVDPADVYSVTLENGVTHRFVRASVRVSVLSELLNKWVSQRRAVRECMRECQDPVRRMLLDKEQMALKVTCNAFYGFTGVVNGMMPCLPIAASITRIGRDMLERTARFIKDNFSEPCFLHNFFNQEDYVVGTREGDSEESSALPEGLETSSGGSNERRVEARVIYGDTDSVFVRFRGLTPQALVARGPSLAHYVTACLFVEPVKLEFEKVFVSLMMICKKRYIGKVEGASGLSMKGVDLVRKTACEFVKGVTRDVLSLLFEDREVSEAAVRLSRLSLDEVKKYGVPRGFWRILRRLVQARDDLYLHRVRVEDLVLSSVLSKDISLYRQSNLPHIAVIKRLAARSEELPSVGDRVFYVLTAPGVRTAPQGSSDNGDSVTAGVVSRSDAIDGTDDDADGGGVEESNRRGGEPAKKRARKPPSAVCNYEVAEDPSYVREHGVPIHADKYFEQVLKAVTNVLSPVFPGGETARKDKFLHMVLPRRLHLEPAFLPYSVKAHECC
Description: as §1

HCMV Strain AD169 = assay: Viral qPCR assay, HCMV; assay type: cell-based, Human cytomegalovirus; details: Human betaherpesvirus 5, AD169, MRC5, 72 h, MRC-5 cells, 0.05-0.1 pfu/cell, growth media or 50% fetal bovine serum, viral genome copies by qPCR, read-out: CMV Cell (EC50)
Description: as §2, §3
HCMV: Strain AD169 Street was assayed in MRC-5 cells and was used at 0.05-0.1 pfu/cell. The assays were performed in either growth media or in the same media with 50% fetal bovine serum. Primer-probe set was Thermo Fisher Assay ID=AIFATFK.

IC50 [1] [nM]	IC50 [2] [nM]	Structure (SMILES)	EC50 (HSV-1 Strain F) [nM]	EC50 (VZV) [nM]	EC50 (HCMV Strain AD169) [nM]
2.91	5.55	COc1nc(-c2cnc(C(C)(C)O)s2)c(O[C@H]2CCN3C(=O)OC[C@@H]3C2)cc1C(=O)NCc1ccc(Cl)cc1 [Compound 19]	96.9	204	157
0.0674	1.05	COc1nc(-c2cnco2)c(O[C@H]2CCN3C(=O)OC[C@@H]3C2)cc1C(=O)NCc1ccc(Cl)cc1 [Compound 6]	87.5	110	77
0.63	2.07	COc1nc(-c2cncs2)c(O[C@H]2CCN3C(=O)OC[C@@H]3C2)cc1C(=O)NCc1ccc(Cl)cc1 [Compound 16]	–	–	137
–	31.2	COc1nc(-c2csc(-n3cccn3)n2)c(O[C@H]2CCN3C(=O)OC[C@@H]3C2)cc1C(=O)NCc1ccc(Cl)cc1 [Compound 29]	246	368	514
–	3.16	CN(C)CCOc1nc(-c2cnn(C(F)F)c2)c(O[C@H]2CCN3C(=O)OC[C@@H]3C2)cc1C(=O)NCc1ccc(Cl)cc1 [Compound 88]	257	317	32.5
–	32.1	COc1nc(C2CC3(CC(O)C3)C2)c(O[C@H]2CCN3C(=O)OC[C@@H]3C2)cc1C(=O)NCc1ccc(Cl)cc1 (stereo partly drawn) [Compound 76]	293	778	519
110	249	COc1ncc(O[C@H]2CCN3C(=O)OC[C@@H]3C2)cc1C(=O)NCc1ccc(Cl)cc1 [Compound 103]	–	5500	4690
–	10.4	COc1nc(-c2ccncc2)c(O[C@H]2CCN3C(=O)OC[C@@H]3C2)cc1C(=O)NCc1ccc(Cl)cc1 [Compound 42]	79.8	130	194
–	5.13	Cc1nsc(-c2nc(OCC(C)(C)O)c(C(=O)NCc3ccc(Cl)cc3)cc2O[C@H]2CCN3C(=O)OC[C@@H]3C2)n1 [Compound 87]	140	207	108
–	18	COc1nc(-c2occc2C=O)c(O[C@H]2CCN3C(=O)OC[C@@H]3C2)cc1C(=O)NCc1ccc(Cl)cc1 [Compound 23]	87.4	117	140
–	16.2	COc1nc(-c2ccc(C)o2)c(O[C@H]2CCN3C(=O)OC[C@@H]3C2)cc1C(=O)NCc1ccc(Cl)cc1 [Compound 13]	229	307	457
–	10.7	COc1nc(-c2ccoc2)c(O[C@H]2CCN3C(=O)OC[C@@H]3C2)cc1C(=O)NCc1ccc(Cl)cc1 [Compound 17]	186	244	317
–	2.3	COc1nc(-c2cnc(N)nc2)c(O[C@H]2CCN3C(=O)OC[C@@H]3C2)cc1C(=O)NCc1ccc(Cl)cc1 [Compound 45]	50	141	111
–	0.705	COc1nc(-c2cnn(CCO)c2)c(O[C@H]2CCN3C(=O)OC[C@@H]3C2)cc1C(=O)NCc1ccc(Cl)cc1 [Compound 32]	52	106	103
–	12.1	O=C(NCc1ccc(Cl)cc1)c1cc(O[C@H]2CCN3C(=O)OC[C@@H]3C2)c(-c2cnn(C(F)F)c2)nc1OCCF [Compound 89]	203	246	195
–	42.6	CCOc1nc(-c2cnn(C(F)F)c2)c(O[C@H]2CCN3C(=O)OC[C@@H]3C2)cc1C(=O)NCc1ccc(Cl)cc1 [Compound 101]	320	578	524
–	3.25	COc1nc(-c2cnn(C(F)F)c2)c(O[C@H]2CCN3C(=O)OC[C@@H]3C2)cc1C(=O)NCc1ccc(C#N)cc1F [Compound 59]	80.6	160	324
–	6.13	COc1nc(-c2cnn(C(F)F)c2)c(O[C@H]2CCN3C(=O)OC[C@@H]3C2)cc1C(=O)NCc1cc(F)c(Cl)c(F)c1 [Compound 57]	207	364	538
–	20	COc1nc(-c2cncc(CO)c2)c(O[C@H]2CCN3C(=O)OC[C@@H]3C2)cc1C(=O)NCc1ccc(Cl)cc1 [Compound 44]	263	585	326
–	31.6	COc1nc(C2CC(O)C2)c(O[C@H]2CCN3C(=O)OC[C@@H]3C2)cc1C(=O)NCc1ccc(Cl)cc1 (single isomer, unassigned) [Compound 74]	271	709	356
–	20.9	COc1nc(CC(C)(C)O)c(O[C@H]2CCN3C(=O)OC[C@@H]3C2)cc1C(=O)NCc1ccc(Cl)cc1 [Compound 73]	575	828	339
–	20.9	COc1nc(-c2ccsc2)c(O[C@H]2CCN3C(=O)OC[C@@H]3C2)cc1C(=O)NCc1ccc(Cl)cc1 [Compound 21]	377	417	500
–	4.87	COc1nc(-c2ccc(=O)[nH]c2)c(O[C@H]2CCN3C(=O)OC[C@@H]3C2)cc1C(=O)NCc1ccc(Cl)cc1 [Compound 47]	654	2320	1300
